Key:
yeasts = assay: quantitative suspension assay, yeasts; format: cell-based; conditions: control 10^5/ml
Source text: (§1) Bacteriological assay methods for additives quantitative suspension assay II (suspension test)
(§2) Microorganisms: aerobic microorganisms (total germ count), Enterobacteriaceae, Enterococci, Lactobacilli, yeasts, molds. These methods are capable of determining the effects of the additives as a function of dosage and duration of action using different microorganisms on different nutrient media.
(§3) Quantitative suspension assay II—suspension test a) Inoculate test germ suspension with the desired test germ, e.g., 10^6/ml, expose for 1-60 min. Place desired formulation to be tested into desiganted germ suspension tubes (different percentages). Await end of exposure times and pour or inoculate into the appropriate agar plates, depending on the germ. […]
(§4) b) Treat the test germ suspension with the desired formulation to be tested (see a) prior to inoculating the test germs (see a). Await end of exposure times and then inoculate with the respective test germs, and inoculate or pour into the appropriate agar plates depending on the test germ.

Enterobacteria = assay: quantitative suspension assay, Enterobacteria; format: cell-based, Enterobacteriaceae; conditions: control 10^8/ml
Source text: as §1, §2, §3, §4

[1] = system: aerobic microorganisms (total germ count); assay: quantitative suspension assay, total germ count; format: cell-based; conditions: control 10^8/ml
Source text: as §1, §2, §3, §4

Lactobacilli = assay: quantitative suspension assay, Lactobacilli; format: cell-based; conditions: control 10^5/ml
Source text: as §1, §2, §3, §4

Enterococci = assay: quantitative suspension assay, Enterococci; format: cell-based; conditions: control 10^8/ml
Source text: as §1, §2, §3, §4

molds = assay: quantitative suspension assay, molds; format: cell-based; conditions: control 10^5/ml
Source text: as §1, §2, §3, §4
Note: test concentration or dose not given here.

| Compound | yeasts germ count (yeasts; 5 min exp. time) | yeasts germ count (yeasts; 15 min exp. time) | yeasts germ count (yeasts; 60 min exp. time) | Enterobacteria germ count (Enterobacteria; 5 min exp. time) | Enterobacteria germ count (Enterobacteria; 15 min exp. time) | Enterobacteria germ count (Enterobacteria; 60 min exp. time) | total germ count ([1]; 5 min exp. time) | total germ count ([1]; 15 min exp. time) | total germ count ([1]; 60 min exp. time) | Lactobacilli germ count (Lactobacilli; 5 min exp. time) | Lactobacilli germ count (Lactobacilli; 15 min exp. time) | Lactobacilli germ count (Lactobacilli; 60 min exp. time) | Enterococci germ count (Enterococci; 5 min exp. time) | Enterococci germ count (Enterococci; 15 min exp. time) | Enterococci germ count (Enterococci; 60 min exp. time) | molds germ count (molds; 5 min exp. time) | molds germ count (molds; 15 min exp. time) | molds germ count (molds; 60 min exp. time) |
| --- | --- | --- | --- | --- | --- | --- | --- | --- | --- | --- | --- | --- | --- | --- | --- | --- | --- | --- |
| CC(O)C(=O)O (stereo not drawn) [Lactic acid] | 10^5 /ml | 10^5 /ml | 10^5 /ml | 10^6 /ml | 10^6 /ml | 10^6 /ml | 10^7 /ml | 10^7 /ml | 10^7 /ml | 10^5 /ml | 10^4 /ml | 10^4 /ml | 10^7 /ml | 10^7 /ml | 10^7 /ml | 10^5 /ml | 10^5 /ml | 10^5 /ml |
| CC(O)CO (stereo not drawn) [Propylene glycol] | 10^5 /ml | 10^5 /ml | 10^5 /ml | 10^8 /ml | 10^8 /ml | 10^8 /ml | 10^9 /ml | 10^9 /ml | 10^9 /ml | 10^5 /ml | 10^5 /ml | 10^5 /ml | 10^8 /ml | 10^8 /ml | 10^8 /ml | 10^5 /ml | 10^5 /ml | 10^5 /ml |
| tannin [Formulation 1a] | 10^4 /ml | 10^4 /ml | 10^4 /ml | 10^6 /ml | 10^6 /ml | 10^6 /ml | 10^6 /ml | 10^6 /ml | 10^6 /ml | 10^5 /ml | 10^4 /ml | 10^4 /ml | 10^7 /ml | 10^6 /ml | 10^6 /ml | 10^4 /ml | 10^4 /ml | 10^4 /ml |
| OCC(O)CO [Glycerol] | 10^5 /ml | 10^5 /ml | 10^5 /ml | 10^7 /ml | 10^7 /ml | 10^7 /ml | 10^6 /ml | 10^8 /ml | 10^8 /ml | 10^5 /ml | 10^5 /ml | 10^5 /ml | 10^8 /ml | 10^8 /ml | 10^8 /ml | 10^5 /ml | 10^5 /ml | 10^5 /ml |
| OCc1ccccc1 [Benzyl alcohol] | 10^5 /ml | 10^4 /ml | 10^4 /ml | 10^7 /ml | 10^7 /ml | 10^7 /ml | 10^8 /ml | 10^7 /ml | 10^7 /ml | 10^5 /ml | 10^5 /ml | 10^5 /ml | 10^8 /ml | 10^7 /ml | 10^7 /ml | 10^5 /ml | 10^4 /ml | 10^4 /ml |

From patent US20020176882A1, “Additive the improvement and/or stabilization of the keeping quality of microbially perishable products” (priority 1997, published 2002)
